Source: patent US20240343733A1, “COMPOUNDS FOR TARGETING DEGRADATION OF IRAK4 PROTEINS” (BIOGEN MA INC., priority 2021, published 2024)
Like-named read-outs stand apart in the source and are kept apart here.

Assay: Pharmacokinetics in Male Cynomolgus Monkeys
Type: in vivo
Conditions: cynomolgus monkey, plasma; for Vd: read-out: Vdss
Protocol: Assay 5. Pharmacokinetics in Male Cynomolgus Monkeys
The pharmacokinetic (PK) profile in plasma of two compounds of the present invention was determined in male cynomolgus monkeys following single dose IV (5 mg/kg) and PO (10 mg/kg) administration. This study was performed under non-GLP conditions, and unless otherwise stated, all analytical reagents were standard laboratory reagent grade. The study was conducted in accordance with IACUC guidelines in compliance with the Animal Welfare Act, the Guide for the Care and Use of Laboratory Animals.
Male cynomolgus monkeys, non-naïve, are acceptable species to support PK studies for compounds intended for use in humans. The animals were supplied by Hainan Jingang Laboratory Animal Co. Ltd (Nayangxintan Fucheng Town, Qiongshan District, Haikou Hainan Province, P.R. China) or another qualified source. During in-life, the animals were individually housed in stainless-steel mesh cages that are in accordance with the National Research Council “Guide for the Care and Use of Laboratory Animals”. Animals were fed twice daily with approximately 120 g of certified monkey diet. These amounts were adjusted as necessary based on food consumption of the group or an individual body weight changes of the group or an individual and/or changes in the certified diet. In addition, animals received fruit daily as nutritional enrichment and reverse osmosis (RO) water was available to all animals, ad libitum. RO water was analyzed every three months and every batch of feed was analyzed before using. Feed and water analyses records were maintained in the facility records. The room(s) were controlled and monitored for relative humidity range of 40-70% (any excursion from this range for more than 3 hours was documented as a deviation) and temperature range of 18-26° C. (any excursion from this range was documented as a deviation) with 10 to 20 air changes/hour. The room was on a 12-hour light/dark cycle except when interruptions were necessitated by study activities. Normal healthy animals weighing >2 kg and age ≥2 years old were selected for studies. The monkeys were identified by a unique skin tattoo on chest.
2-[4-[[4-[1-(2,6-dioxo-3-piperidyl)-3-methyl-2-oxo-benzimidazol-5-yl]-1-piperidyl]methyl]cyclohexyl]-7-isopropoxy-N-pyrazolo[1,5-a]pyrimidin-3-yl-imidazo[1,2-a]pyridine-6-carboxamide, as described in Example 48 (“Compound 48”), and 2-((1R,4S)-4-((4-(1-(2,6-dioxopiperidin-3-yl)-3-methyl-2-oxo-2,3-dihydro-1H-benzo[d]imidazol-5-yl)piperidin-1-yl)methyl)cyclohexyl)-N-(1-((1S,2R)-2-fluorocyclopropyl)-2-oxo-1,2-dihydropyridin-3-yl)-7-isopropoxyimidazo[1,2-a]pyridine-6-carboxamide, as described in Example 169 (“Compound 169”), were each formulated by dissolving the compound in polyethylene glycol (PEG400) (10%) with stirring, followed by the slow addition of 11.11% 2-Hydroxypropyl-beta-cyclodextrin (HPβCD) (90%) in water. Vehicle dose was PEG400 (10%) and 11.11% HP-β-CD (90%) in water. Formulations and vehicle were freshly prepared on of the day of dosing and stored at room temperature until used.
All animals were weighed prior to drug administration. The animals were divided into intravenous (IV) group and per os (PO) group for each compound tested, with 3 animals in each group. The vehicle dosing group included IV and PO groups, making a total of 6 groups of 3 animals each, for 18 animals total. The IV dose was administered by intravenous bolus injection into the cephalic or saphenous vein. The vein used for the dosing was not used for blood sample collection for the first 4 hours post dose. The PO dose was administered by nasogastric tube. The nasogastric PO doses were flushed using 3 mL of vehicle (approximately 3 times volume of nasogastric tube). […] The dosing volume was 2.5 mL/kg for the IV groups and 5 mL/kg for the PO groups. The dosing concentration was 2 mg/mL for both IV and PO groups. Feeding conditions were overnight fasting for PO group but not for IV group. […]

Row | AUC(0-t) (5 mg/kg IV, mean) [ng·h/mL] | C0 (5 mg/kg IV, mean) [ng/mL] | clearance (5 mg/kg IV, mean) [mL/min/kg] | half-life (5 mg/kg IV, mean) [h] | Vd (5 mg/kg IV, mean) [L/kg] | AUC(0-t) (10 mg/kg PO, mean) [ng·h/mL] | Cmax (10 mg/kg PO, mean) [ng/mL] | bioavailability (10 mg/kg PO, mean) [%] | AUC(0-t) (5 mg/kg IV, mean (Table 11)) [ng·h/mL] | C0 (5 mg/kg IV, mean (Table 11)) [ng/mL] | clearance (5 mg/kg IV, mean (Table 11)) [mL/min/kg] | half-life (5 mg/kg IV, mean (Table 11)) [h] | Vd (5 mg/kg IV, mean (Table 11)) [L/kg] | AUC(0-t) (10 mg/kg PO, mean (Table 12)) [ng·h/mL] | Cmax (10 mg/kg PO, mean (Table 12)) [ng/mL] | bioavailability (10 mg/kg PO, mean (Table 12)) [%] | SMILES
1 | 1740 | 5970 | 48.6 | 44.2 | 70.3 | 84.3 | 18.3 | 2.42 |  |  |  |  |  |  |  |  | CC(C)Oc1cc2nc([C@H]3CC[C@H](CN4CCC(c5ccc6c(c5)n(C)c(=O)n6C5CCC(=O)NC5=O)CC4)CC3)cn2cc1C(=O)Nc1cnn2cccnc12 (stereo partly shown) [Compound 48, 2-[4-[[4-[1-(2,6-dioxo-3-piperidyl)-3-methyl-2-oxo-benzimidazol-5-yl]-1-piperidyl]methyl]cyclohexyl]-7-isopropoxy-N-pyrazolo[1,5-a]pyrimidin-3-yl-imidazo[1,2-a]pyridine-6-carboxamide]
2 |  |  |  |  |  |  |  |  | 4680 | 10300 | 17 | 44.3 | 32.6 | 1020 | 101 | 10.8 | CC(C)Oc1cc2nc([C@H]3CC[C@H](CN4CCC(c5ccc6c(c5)n(C)c(=O)n6C5CCC(=O)NC5=O)CC4)CC3)cn2cc1C(=O)Nc1cccn([C@H]2C[C@H]2F)c1=O (stereo partly drawn) [Compound 169, 2-((1R,4S)-4-((4-(1-(2,6-dioxopiperidin-3-yl)-3-methyl-2-oxo-2,3-dihydro-1H-benzo[d]imidazol-5-yl)piperidin-1-yl)methyl)cyclohexyl)-N-(1-((1S,2R)-2-fluorocyclopropyl)-2-oxo-1,2-dihydropyridin-3-yl)-7-isopropoxyimidazo[1,2-a]pyridine-6-carboxamide]
